Patent publication US9777005B2 (Takeda Pharmaceutical Company Limited, priority 2012, dated 2017)

Molecular target: T1, human M1 receptor (hCHRM1) (Homo sapiens, UniProt P11229)
T1 construct: expressed in transfected cells; host or cells: CHO-K1
T1 sequence (P11229 1-460): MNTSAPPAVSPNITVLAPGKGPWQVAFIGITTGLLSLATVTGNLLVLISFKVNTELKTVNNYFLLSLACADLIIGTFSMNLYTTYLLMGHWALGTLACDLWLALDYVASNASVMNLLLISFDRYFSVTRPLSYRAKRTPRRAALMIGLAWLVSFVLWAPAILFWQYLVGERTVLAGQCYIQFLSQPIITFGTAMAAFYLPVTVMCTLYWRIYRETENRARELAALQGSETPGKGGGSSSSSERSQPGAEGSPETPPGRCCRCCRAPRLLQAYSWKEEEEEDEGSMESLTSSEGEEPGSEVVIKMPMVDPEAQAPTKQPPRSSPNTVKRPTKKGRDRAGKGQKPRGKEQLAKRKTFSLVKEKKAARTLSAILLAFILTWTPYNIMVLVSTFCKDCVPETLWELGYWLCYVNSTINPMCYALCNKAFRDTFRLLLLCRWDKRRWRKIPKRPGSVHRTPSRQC
Experiment: Measurement of M1 receptor positive allosteric modulator (M1PAM) activity, calcium fluorescence (FLIPRtetra) in CHO-K1 cells in the presence of acetylcholine at EC20
Type: cell-based
Details: in the presence of acetylcholine at EC20 (final 0.6 nM), CHO-K1 cells expressing hCHRM1; for EC50: inflection point of M1PAM activity, read-out: IP value; for activity (%) at 10 μM: test compound 10 μM
In short: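 CHO-K1 cells expressing human M1 were loaded with Fluo-4 AM, and compound was added with acetylcholine at EC20 (final 0.6 nM). Calcium fluorescence was read on FLIPRtetra for 1 min. Activity was normalized to 1 μM acetylcholine (100%) and DMSO (0%), and the curve inflection point was reported as IP.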

Cn1cc(-c2ccc(CN3Cc4ccnc(Oc5cc(C#N)ccc5F)c4C3=O)cc2)cn1 [Example 297, 4-fluoro-3-((2-(4-(1-methyl-1H-pyrazol-4-yl)benzyl)-3-oxo-2,3-dihydro-1H-pyrrolo[3,4-c]pyridin-4-yl)oxy)benzonitrile]
EC50: 16 nM
activity (%) at 10 μM: 96%

COCc1ccc(F)c(Oc2nccc3c2C(=O)N(Cc2ccc(-c4cnn(C)c4)cc2)C3)c1 [Example 302, 4-(2-fluoro-5-(methoxymethyl)phenoxy)-2-(4-(1-methyl-1H-pyrazol-4-yl)benzyl)-1,2-dihydro-3H-pyrrolo[3,4-c]pyridin-3-one]
EC50: 32 nM
activity (%) at 10 μM: 92%

Cc1cc(-c2ccc(CN3Cc4ccnc(Oc5ccc(C(F)(F)F)cc5F)c4C3=O)cc2)cnn1 [Example 303, 4-(2-fluoro-4-(trifluoromethyl)phenoxy)-2-(4-(6-methylpyridazin-4-yl)benzyl)-1,2-dihydro-3H-pyrrolo[3,4-c]pyridin-3-one]
EC50: 8.5 nM
activity (%) at 10 μM: 91%

Cn1cc(-c2ccc(CN3Cc4ccnc(Oc5ccc(C(F)(F)F)cc5F)c4C3=O)cc2)cn1 [Example 304, 4-(2-fluoro-4-(trifluoromethyl)phenoxy)-2-(4-(1-methyl-1H-pyrazol-4-yl)benzyl)-1,2-dihydro-3H-pyrrolo[3,4-c]pyridin-3-one]
EC50: 12 nM
activity (%) at 10 μM: 93%

Cn1ccc(-c2ccc(CN3Cc4ccnc(Oc5ccc(C(F)(F)F)cc5F)c4C3=O)cc2)n1 [Example 305, 4-(2-fluoro-4-(trifluoromethyl)phenoxy)-2-(4-(1-methyl-1H-pyrazol-3-yl)benzyl)-1,2-dihydro-3H-pyrrolo[3,4-c]pyridin-3-one]
EC50: 25 nM
activity (%) at 10 μM: 94%

Cn1cc(-c2ccc(CN3Cc4ncnc(Oc5ccc(C(F)(F)F)cc5F)c4C3=O)cc2)cn1 [Example 306, 4-(2-fluoro-4-(trifluoromethyl)phenoxy)-6-(4-(1-methyl-1H-pyrazol-4-yl)benzyl)-6,7-dihydro-5H-pyrrolo[3,4-d]pyrimidin-5-one]
EC50: 8.9 nM
activity (%) at 10 μM: 97%

Cn1cc(-c2ccc(CN3Cc4ncnc(Oc5ccc(C(F)F)cc5F)c4C3=O)cc2)cn1 [Example 307, 4-(4-(difluoromethyl)-2-fluorophenoxy)-6-(4-(1-methyl-1H-pyrazol-4-yl)benzyl)-6,7-dihydro-5H-pyrrolo[3,4-d]pyrimidin-5-one]
EC50: 9.3 nM
activity (%) at 10 μM: 92%

Cn1cc(-c2ccc(CN3Cc4ccnc(Oc5cc(C(C)(C)O)ccc5F)c4C3=O)cc2)cn1 [Example 308, 4-(2-fluoro-5-(2-hydroxypropan-2-yl)phenoxy)-2-(4-(1-methyl-1H-pyrazol-4-yl)benzyl)-1,2-dihydro-3H-pyrrolo[3,4-c]pyridin-3-one]
EC50: 44 nM
activity (%) at 10 μM: 99%

O=C1c2c(ccnc2Oc2ccc(C(F)(F)F)cc2F)CN1Cc1ccc(-c2ccnnc2)cc1 [Example 309, 4-(2-fluoro-4-(trifluoromethyl)phenoxy)-2-(4-(pyridazin-4-yl)benzyl)-1,2-dihydro-3H-pyrrolo[3,4-c]pyridin-3-one]
EC50: 27 nM
activity (%) at 10 μM: 100%

Cn1ccc(-c2ccc(CN3Cc4ncnc(Oc5ccc(C(F)F)cc5F)c4C3=O)cc2)n1 [Example 310, 4-(4-(difluoromethyl)-2-fluorophenoxy)-6-(4-(1-methyl-1H-pyrazol-3-yl)benzyl)-6,7-dihydro-5H-pyrrolo[3,4-d]pyrimidin-5-one]
EC50: 30 nM
activity (%) at 10 μM: 105%

Cc1cc(-c2ccc(CN3Cc4ncnc(Oc5ccc(C(F)(F)F)cc5F)c4C3=O)cc2)cnn1 [Example 311, 4-(2-fluoro-4-(trifluoromethyl)phenoxy)-6-(4-(6-methylpyridazin-4-yl)benzyl)-6,7-dihydro-5H-pyrrolo[3,4-d]pyrimidin-5-one]
EC50: 16 nM
activity (%) at 10 μM: 100%

Cc1nn(C)cc1-c1ccc(CN2Cc3ccnc(Oc4cc(C(C)(C)O)ccc4F)c3C2=O)cc1 [Example 312, 2-(4-(1,3-dimethyl-1H-pyrazol-4-yl)benzyl)-4-(2-fluoro-5-(2-hydroxypropan-2-yl)phenoxy)-1,2-dihydro-3H-pyrrolo[3,4-c]pyridin-3-one]
EC50: 39 nM
activity (%) at 10 μM: 96%

O=C1c2c(ncnc2Oc2ccc(C(F)(F)F)cc2F)CN1Cc1ccc(-c2ccnnc2)cc1 [Example 313, 4-(2-fluoro-4-(trifluoromethyl)phenoxy)-6-(4-(pyridazin-4-yl)benzyl)-6,7-dihydro-5H-pyrrolo[3,4-d]pyrimidin-5-one]
EC50: 27 nM
activity (%) at 10 μM: 89%

Cn1ccc(-c2ccc(CN3Cc4ncnc(Oc5ccc(C(F)(F)F)cc5F)c4C3=O)cc2)n1 [Example 314, 4-(2-fluoro-4-(trifluoromethyl)phenoxy)-6-(4-(1-methyl-1H-pyrazol-3-yl)benzyl)-6,7-dihydro-5H-pyrrolo[3,4-d]pyrimidin-5-one]
EC50: 11 nM
activity (%) at 10 μM: 89%

Cc1nn(C)cc1-c1ccc(CN2Cc3ncnc(OC4CCC4)c3C2=O)cc1 [Example 323, 4-(cyclobutyloxy)-6-(4-(1,3-dimethyl-1H-pyrazol-4-yl)benzyl)-6,7-dihydro-5H-pyrrolo[3,4-d]pyrimidin-5-one]
EC50: 21 nM
activity (%) at 10 μM: 89%

CCn1cc(-c2ccc(CN3Cc4ncnc(OC5CCC5)c4C3=O)cc2)cn1 [Example 324, 4-(cyclobutyloxy)-6-(4-(1-ethyl-1H-pyrazol-4-yl)benzyl)-6,7-dihydro-5H-pyrrolo[3,4-d]pyrimidin-5-one]
EC50: 19 nM
activity (%) at 10 μM: 99%

O=C1c2c(ccnc2OCC2CCCO2)CN1Cc1ccc(-c2ccnc(C(F)(F)F)c2)cc1 (stereo not drawn) [Example 325, 4-((tetrahydrofuran-2-yl)methoxy)-2-(4-(2-(trifluoromethyl)pyridin-4-yl)benzyl)-1,2-dihydro-3H-pyrrolo[3,4-c]pyridin-3-one]
EC50: 47 nM
activity (%) at 10 μM: 116%

Cc1cc(-c2ccc(CN3Cc4ccnc(OCC5CCCO5)c4C3=O)cc2)cnn1 (stereo not drawn) [Example 326, 2-(4-(6-methylpyridazin-4-yl)benzyl)-4-((tetrahydrofuran-2-yl)methoxy)-1,2-dihydro-3H-pyrrolo[3,4-c]pyridin-3-one]
EC50: 23 nM
activity (%) at 10 μM: 108%

Cn1cc(-c2ccc(CN3Cc4ccnc(OCc5ccccc5F)c4C3=O)c(F)c2)nn1 [Example 327, 4-((2-fluorobenzyl)oxy)-2-(2-fluoro-4-(1-methyl-1H-1,2,3-triazol-4-yl)benzyl)-1,2-dihydro-3H-pyrrolo[3,4-c]pyridin-3-one]
EC50: 6.5 nM
activity (%) at 10 μM: 98%

Cc1nn(C)cc1-c1ccc(CN2Cc3ccnc(OCc4ncccc4F)c3C2=O)c(F)c1 [Example 329, 2-(4-(1,3-dimethyl-1H-pyrazol-4-yl)-2-fluorobenzyl)-4-((3-fluoropyridin-2-yl)methoxy)-1,2-dihydro-3H-pyrrolo[3,4-c]pyridin-3-one]
EC50: 4.3 nM
activity (%) at 10 μM: 106%

Cn1cc(-c2ccc(CN3Cc4cccc(OCC5CCCO5)c4C3=O)c(F)c2)nn1 (stereo not drawn) [Example 330, 2-(2-fluoro-4-(1-methyl-1H-1,2,3-triazol-4-yl)benzyl)-7-((tetrahydrofuran-2-yl)methoxy)isoindolin-1-one]
EC50: 30 nM
activity (%) at 10 μM: 104%
